According to US10533015B1, “Opioid receptor antagonist prodrugs” (Nirsum Laboratories, Inc., priority 2019, dated 2020):
In brackets after ≈: the same amount, converted by molar mass. Like-named read-outs stand apart in the source and are kept apart here. Blank lines part the entries; values can stand above or below the molecule they belong to.

Tests used:
[1] = Plasma stability assay, rat plasma; type: in vitro ADME; settings: 10 μM, 37° C.
Method in brief: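 Compound is added to plasma (dog, monkey, human: 2 μM final, 1% solvent) and held at 37 °C, with aliquots taken at 0, 10, 30, 60 and 120 min; rat samples are taken at 0, 15, 120, 480 and 1440 min. Parent remaining (%) is then determined by HPLC-MS.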

physchem = settings: thermodynamic from solid; for solubility at 24 h: 25 °C, obs. temp. 25 °C; for solubility at 24 h / solubility: heating temp. 60 °C; for solubility: obs. temp. 40 °C
[2] = Polymorph screening of solid state drug substances; settings: for Dry method and appearance: after stirring 50 °C 72 hours, dried solid; for XRPD results (Dried): dried solid after 50 °C 72 hours; for Visual observation 50° C. / Visual observation RT: target conc. 100 mg/ml
[3] = Plasma stability assay, dog plasma; type: in vitro ADME; settings: 2 μM, 37° C.
Experimental: (§1) Plasma stability determination of the test compounds in rat, dog, cynomolgus monkey and human plasma is performed using HPLC-MS. For rat, incubations are carried out in 96-well polypropylene plates in 5 aliquots of 70 μL each (one for each time point). […] Five time points are analyzed (0, 15, 120, 480 and 1440 min). […] All incubations are performed in duplicates. The samples are analyzed by HPLC-MS. The percentage of parent compound remaining after incubation in plasma is determined.

[4] = Plasma stability assay, monkey plasma; type: in vitro ADME, cynomolgus monkey; settings: 2 μM, 37° C.
Experimental: as §1

[5] = Plasma stability assay, human plasma; type: in vitro ADME; settings: 2 μM, 37° C.
Experimental: as §1

[6] = Liver S9 fraction stability, dog; type: in vitro ADME; settings: dog liver S9, 1.0 mg/ml S9 protein, 2 μM, 37° C.
Experimental: (§2) Liver S9 fraction stability determination of the test compounds in dog, cynomolgus monkey and human is performed using HPLC-MS. Test compound (2 μM, 0.1% DMSO, 1% Methanol final concentration) was assessed for stability in a 50 μl phosphate buffer containing 1.0 mg/ml S9 protein from each of the three species and 5 mM D-saccharic acid-1, 4-lactone. Samples were incubated at 37° C. for 60 minutes and the % compound remaining was assessed.

[7] = Liver S9 fraction stability, monkey; type: in vitro ADME, cynomolgus monkey; settings: monkey liver S9, 1.0 mg/ml S9 protein, 2 μM, 37° C.
Experimental: as §2

[8] = Liver S9 fraction stability, human; type: in vitro ADME; settings: human liver S9, 1.0 mg/ml S9 protein, 2 μM, 37° C.
Experimental: as §2

[9] = heating temp. 40 °C, obs. temp. 40 °C
[10] = heating temp. 60 °C, obs. temp. 25 °C
[11] = heating temp. 60 °C, obs. temp. 40 °C

Compound: C=C1CC[C@@]2(O)C3Cc4ccc(OC(=O)CCCCCCCCCCC)c5c4[C@@]2(CCN3CC2CC2)[C@H]1O5 [Compound 59, (4aS,7aS,12bS)-3-(cyclopropylmethyl)-4a-hydroxy-7-methylene-2,3,4,4a,5,6,7,7a-octahydro-1H-4,12-methanobenzofuro[3,2-e]isoquinolin-9-yl dodecanoate, reference compound]
- % remaining at time point ([1]; 0 min): 100%
- % remaining at time point ([1]; 15 min): 5.9%
- % remaining at time point ([1]; 120 min): 0.7%
- % remaining at time point ([1]; 480 min): 0.2%
- % remaining at time point ([1]; 1440 min): 0%
- solubility at 24 h (physchem; oil or lipid, Approximate Solubility (mg/mL) in Excipient: Cottonseed oil, Cottonseed oil): > 414 mg/mL
- solubility at 24 h (physchem; oil or lipid, Approximate Solubility (mg/mL) in Excipient: Sesame oil, Sesame oil): > 393 mg/mL
- solubility thermodynamic (physchem; 40 °C, water): < 0.001 mg/mL

Compound: C=C1CC[C@@]2(O)[C@H]3Cc4ccc(O)c5c4[C@@]2(CCN3CC2CC2)[C@H]1O5 [nalmefene, 17-cyclopropylmethyl-4,5α-epoxy-6-methylenemorphinan-3,14-diol]
- solubility (physchem; 40 °C, oil or lipid, Approximate Solubility (mg/mL) in Excipient: Cottonseed oil, Cottonseed oil): < 25 mg/mL
- solubility (physchem; 40 °C, oil or lipid, Approximate Solubility (mg/mL) in Excipient: Sesame oil, Sesame oil): < 25.5 mg/mL
- solubility (physchem; 40 °C, organic solvent or mixture, Approximate Solubility (mg/mL) in Excipient: Ethanol, Ethanol): 102 to 137 mg/mL (≈ 300 to 404 mM)

Compound: CCCCCCCCCCCCOC(=O)Oc1ccc2c3c1O[C@H]1C(=O)CC[C@@]4(O)C(C2)N(CC2CC2)CC[C@]314 [Compound 11, (4aS,7aR,12bS)-3-(cyclopropylmethyl)-4a-hydroxy-7-oxo-2,3,4,4a,5,6,7,7a-octahydro-1H-4,12-methanobenzofuro[3,2-e]isoquinolin-9-yl dodecyl carbonate]
- % remaining at time point ([1]; 0 min): 100%
- % remaining at time point ([1]; 15 min): 0.7%
- % remaining at time point ([1]; 120 min): 0.3%
- % remaining at time point ([1]; 480 min): 0.2%
- % remaining at time point ([1]; 1440 min): 0%
- Approximate Solubility (mg/mL) in Excipient: Cottonseed oil [9]: >407 mg/mL
- Approximate Solubility (mg/mL) in Excipient: Cottonseed oil [10]: <51 mg/mL
- Approximate Solubility (mg/mL) in Excipient: Ethanol [9]: >218 mg/mL
- Approximate Solubility (mg/mL) in Excipient: Sesame oil [9]: >407 mg/mL
- Approximate Solubility (mg/mL) in Excipient: Sesame oil [10]: <50 mg/mL
- Dry method and appearance ([2]; Acetone): Evaporation/white powder
- XRPD results (Dried) ([2]; Acetone): Pattern A
- Visual observation 50° C. ([2]; Acetone): Clear
- Visual observation RT ([2]; Acetone): Slurry
- Dry method and appearance ([2]; EtOAc): Evaporation/white powder
- XRPD results (Dried) ([2]; EtOAc): Pattern A
- Visual observation 50° C. ([2]; EtOAc): Clear
- Visual observation RT ([2]; EtOAc): Slurry
- Dry method and appearance ([2]; Heptane): Evaporation/white powder
- XRPD results (Dried) ([2]; Heptane): Pattern B
- Visual observation 50° C. ([2]; Heptane): Clear
- Visual observation RT ([2]; Heptane): Clear
- Dry method and appearance ([2]; Isopropanol): Evaporation/white powder
- XRPD results (Dried) ([2]; Isopropanol): Pattern A
- Visual observation 50° C. ([2]; Isopropanol): Clear
- Visual observation RT ([2]; Isopropanol): Slurry
- Dry method and appearance ([2]; MTBE): Evaporation/white powder
- XRPD results (Dried) ([2]; MTBE): Pattern A
- Visual observation 50° C. ([2]; MTBE): Clear
- Visual observation RT ([2]; MTBE): Clear

Compound: CCCCCCCCCCCCCCCC(=O)Oc1ccc2c3c1O[C@H]1C(=O)CC[C@@]4(O)C(C2)N(CC2CC2)CC[C@]314 [Compound 55, (4aS,7aR,12bS)-3-(cyclopropylmethyl)-4a-hydroxy-7-oxo-2,3,4,4a,5,6,7,7a-octahydro-1H-4,12-methanobenzofuro[3,2-e]isoquinolin-9-yl palmitate]
- % remaining at time point ([1]; 0 min): 100%
- % remaining at time point ([1]; 15 min): 77.3%
- % remaining at time point ([1]; 120 min): 47.2%
- % remaining at time point ([1]; 480 min): 27.1%
- % remaining at time point ([1]; 1440 min): 15.6%
- Approximate Solubility (mg/mL) in Excipient: Cottonseed oil [10]: <50 mg/mL
- Approximate Solubility (mg/mL) in Excipient: Cottonseed oil [11]: >400.1 mg/mL
- Approximate Solubility (mg/mL) in Excipient: Ethanol [11]: >401.1 mg/mL
- Approximate Solubility (mg/mL) in Excipient: Sesame oil [10]: <50 mg/mL
- Approximate Solubility (mg/mL) in Excipient: Sesame oil [11]: >394.8 mg/mL
- Equilibrium solubility (mg/mL) Water (Water, compound after slurry in EtOAc, temperatures N/A): <0.0005 mg/mL
- Dry method and appearance ([2]; Acetone): Evaporation/white powder
- XRPD results (Dried) ([2]; Acetone): Pattern B
- Visual observation 50° C. ([2]; Acetone): Clear
- Visual observation RT ([2]; Acetone): Slurry
- Dry method and appearance ([2]; EtOAc): Evaporation/white powder
- XRPD results (Dried) ([2]; EtOAc): Pattern B
- Visual observation 50° C. ([2]; EtOAc): Clear
- Visual observation RT ([2]; EtOAc): Slurry
- Dry method and appearance ([2]; Heptane): Evaporation/white powder
- XRPD results (Dried) ([2]; Heptane): Pattern B
- Visual observation 50° C. ([2]; Heptane): Clear
- Visual observation RT ([2]; Heptane): Slurry
- Dry method and appearance ([2]; Isopropanol): Evaporation/white powder
- XRPD results (Dried) ([2]; Isopropanol): Pattern B
- Visual observation 50° C. ([2]; Isopropanol): Clear
- Visual observation RT ([2]; Isopropanol): Slurry
- Dry method and appearance ([2]; MTBE): Evaporation/white powder
- XRPD results (Dried) ([2]; MTBE): Pattern B
- Visual observation 50° C. ([2]; MTBE): Clear
- Visual observation RT ([2]; MTBE): Clear

Compound: CCCCCCCCCCCC(=O)OCN1C(=O)CCc2ccc(OCCCCN3CCN(c4cccc(Cl)c4Cl)CC3)cc21 [Aripiprazole Lauroxil, reference compound]
- % remaining at time point ([1]; 0 min): 100%
- % remaining at time point ([1]; 15 min): 84%
- % remaining at time point ([1]; 120 min): 85.5%
- % remaining at time point ([1]; 480 min): 76.4%
- % remaining at time point ([1]; 1440 min): 46%
- % remaining at time point ([3]; 0 min): 100%
- % remaining at time point ([3]; 15 min (head)): 103%
- % remaining at time point ([3]; 120 min (head)): 81.3%
- % remaining at time point ([3]; 480 min (head)): 78.6%
- % remaining at time point ([3]; 1440 min (head)): 74.3%
- % remaining at time point ([4]; 0 min): 100%
- % remaining at time point ([4]; 15 min (head)): 95.2%
- % remaining at time point ([4]; 120 min (head)): 94.5%
- % remaining at time point ([4]; 480 min (head)): 75.5%
- % remaining at time point ([4]; 1440 min (head)): 83.2%
- % remaining at time point ([5]; 0 min): 100%
- % remaining at time point ([5]; 15 min (head)): 99.7%
- % remaining at time point ([5]; 120 min (head)): 80%
- % remaining at time point ([5]; 480 min (head)): 73.2%
- % remaining at time point ([5]; 1440 min (head)): 75.5%
- % remaining at 60 minutes [6]: 66.1%
- % remaining at 60 minutes [7]: 56.6%
- % remaining at 60 minutes [8]: 47.8%

- % remaining at time point ([3]; 0 min): 100%
- % remaining at time point ([3]; 15 min (head)): 91.2%
- % remaining at time point ([3]; 120 min (head)): 88.4%
- % remaining at time point ([3]; 480 min (head)): 95.9%
- % remaining at time point ([3]; 1440 min (head)): 93.1%
- % remaining at time point ([4]; 0 min): 100%
- % remaining at time point ([4]; 15 min (head)): 92%
- % remaining at time point ([4]; 120 min (head)): 89.5%
- % remaining at time point ([4]; 480 min (head)): 98.4%
- % remaining at time point ([4]; 1440 min (head)): 92.5%
- % remaining at time point ([5]; 0 min): 100%
- % remaining at time point ([5]; 15 min (head)): 103.7%
- % remaining at time point ([5]; 120 min (head)): 97.6%
- % remaining at time point ([5]; 480 min (head)): 109.1%
- % remaining at time point ([5]; 1440 min (head)): 104.1%
- % remaining at 60 minutes [6]: 56.4%
- % remaining at 60 minutes [7]: 57.4%
- % remaining at 60 minutes [8]: 47.8%
Compound: CCCCCCCCCCCCCCCC(=O)OC1CCCn2c1nc(C)c(CCN1CCC(c3noc4cc(F)ccc34)CC1)c2=O (centres unmarked) [Paliperidone palmitate, reference compound]
